Experimental data taken from US20200361895A1, “NOVEL SULFONAMIDE CARBOXAMIDE COMPOUNDS” (Inflazome Limited, priority 2017, published 2020).
Counter-ions that a name gives are not always drawn.

Columns and labels:
NLRP3 [1] = target: T1, NLRP3 (Homo sapiens, UniProt Q96P20); test: THP-1 cells pyroptosis assay (LPS + nigericin, resazurin readout; THP IC50); format: cell-based; parameters: Seed THP-1 cells (25,000 cells/well) containing 1.0 μg/ml LPS in 40 μl of RPMI medium; host or cells: THP-1 cells
Procedure, shortened: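 IC50 from 4-parameter fit of resazurin fluorescence (100 μM, 1-2 hrs), reflecting surviving cells after pyroptosis. LPS-primed (1 μg/ml) THP-1 cells in FBS-free RPMI got compound for 3 hrs at 37° C (top 10 μM, half-log, 8 points), then nigericin 5 μM for 1 hr.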

NLRP3 [2] = target: T1, NLRP3; test: Human whole blood IL1β release assay (LPS + nigericin, AlphaLisa IL-1β; HWB IC50); format: cell-based; parameters: Human whole blood in Li-heparin tubes was obtained from healthy donors from a volunteer donor panel; from tissue; host or cells: human whole blood from healthy donors; details: IL-1β release
Procedure, shortened: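 IL-1β in plasma supernatant quantified by AlphaLisa after nigericin (10 μM final, 1 h, 37 °C) triggering of human whole blood that had been preincubated 3 h with LPS (1 μg/ml) plus compound (half-log, 8 points, from 10 μM). IC50 by variable-slope four-parameter regression.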

T1 sequence (Q96P20 whole entry): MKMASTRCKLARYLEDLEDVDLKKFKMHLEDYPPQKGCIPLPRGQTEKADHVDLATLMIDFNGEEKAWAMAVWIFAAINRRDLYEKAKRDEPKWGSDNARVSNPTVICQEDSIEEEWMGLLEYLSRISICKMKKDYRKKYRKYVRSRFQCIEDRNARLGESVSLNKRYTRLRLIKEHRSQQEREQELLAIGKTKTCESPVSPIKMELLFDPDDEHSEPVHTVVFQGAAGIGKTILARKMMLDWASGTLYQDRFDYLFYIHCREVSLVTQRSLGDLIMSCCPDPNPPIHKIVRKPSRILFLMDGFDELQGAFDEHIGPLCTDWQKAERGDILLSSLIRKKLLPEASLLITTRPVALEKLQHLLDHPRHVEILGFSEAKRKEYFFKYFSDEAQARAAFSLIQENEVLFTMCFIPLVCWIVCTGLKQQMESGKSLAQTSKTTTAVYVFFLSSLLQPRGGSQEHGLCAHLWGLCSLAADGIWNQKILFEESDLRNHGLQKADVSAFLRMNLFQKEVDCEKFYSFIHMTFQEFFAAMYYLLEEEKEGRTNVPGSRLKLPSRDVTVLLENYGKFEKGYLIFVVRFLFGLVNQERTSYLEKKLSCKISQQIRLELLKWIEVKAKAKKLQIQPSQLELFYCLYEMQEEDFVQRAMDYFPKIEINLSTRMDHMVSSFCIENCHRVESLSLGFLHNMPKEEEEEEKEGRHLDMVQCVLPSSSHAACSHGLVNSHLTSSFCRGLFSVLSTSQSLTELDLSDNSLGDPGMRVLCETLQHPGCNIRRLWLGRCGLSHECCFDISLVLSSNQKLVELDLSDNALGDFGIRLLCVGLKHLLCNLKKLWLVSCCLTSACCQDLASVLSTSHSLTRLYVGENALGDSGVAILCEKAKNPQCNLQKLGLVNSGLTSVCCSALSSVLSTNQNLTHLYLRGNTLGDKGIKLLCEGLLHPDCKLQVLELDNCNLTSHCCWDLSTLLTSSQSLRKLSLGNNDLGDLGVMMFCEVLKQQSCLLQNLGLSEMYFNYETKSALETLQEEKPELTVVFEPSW

Compound	IC50 (NLRP3 [1])	IC50 (NLRP3 [2])
CN(C)CC(C)(C)n1ccc(S(=O)(=O)NC(=O)Nc2c(-c3ccnc(OC4CC4)c3)ccc3c2CCO3)n1 [Example 198, N-((5-(2-Cyclopropoxypyridin-4-yl)-2,3-dihydrobenzofuran-4-yl)carbamoyl)-1-(1-(dimethylamino)-2-methylpropan-2-yl)-1H-pyrazole-3-sulfonamide, sodium salt]	≤ 500 nM	≤ 500 nM
CC(C)n1ccc(S(=O)(=O)NC(=O)Nc2c(-c3ccnc(OC4CCCOC4)c3)ccc3c2CCC3)n1 (stereo not shown) [Example 288, 1-Isopropyl-N-((5-(2-((tetrahydro-2H-pyran-3-yl)oxy)pyridin-4-yl)-2,3-dihydro-1H-inden-4-yl)carbamoyl)-1H-pyrazole-3-sulfonamide, sodium salt]	≤ 500 nM	≤ 5000 nM
COc1cc(-c2ccc3c(c2NC(=O)NS(=O)(=O)c2ccn(C(C)(C)C)n2)CCO3)ccn1 [Example 259, 1-(tert-Butyl)-N-((5-(2-methoxypyridin-4-yl)-2,3-dihydrobenzofuran-4-yl)carbamoyl)-1H-pyrazole-3-sulfonamide, sodium salt]	≤ 500 nM	≤ 500 nM
[2H]C([2H])([2H])Oc1cc(-c2ccc3c(c2NC(=O)NS(=O)(=O)c2ccc(CN(C)C)cc2)CCC3)ccn1 [Example 310, 4-((Dimethylamino)methyl)-N-((5-(2-(methoxy-d3)pyridin-4-yl)-2,3-dihydro-1H-inden-4-yl)carbamoyl)benzenesulfonamide]	≤ 500 nM	≤ 500 nM
CC(C)c1cc(F)cc(-c2ccccc2)c1NC(=O)NS(=O)(=O)c1cc(CN(C)C)n(C)n1 [Example 40, 5-((Dimethylamino)methyl)-N-((5-fluoro-3-iso-propyl-[1,1′-biphenyl]-2-yl)carbamoyl)-1-methyl-1H-pyrazole-3-sulfonamide]	≤ 500 nM	≤ 1000 nM
C[C@@H](O)Cn1ccc(S(=O)(=O)NC(=O)Nc2c(-c3ccnc(C#N)c3)ccc3c2CCC3)n1 [Example 182, (R)-N-((5-(2-Cyanopyridin-4-yl)-2,3-dihydro-1H-inden-4-yl)carbamoyl)-1-(2-hydroxypropyl)-1H-pyrazole-3-sulfonamide, sodium salt]	≤ 500 nM	≤ 500 nM
COc1cc(-c2ccc3c(c2NC(=O)NS(=O)(=O)c2ccnc(CN(C)C)c2)CCC3)ccn1 [Example 177, 2-((Dimethylamino)methyl)-N-((5-(2-methoxypyridin-4-yl)-2,3-dihydro-1H-inden-4-yl)carbamoyl)pyridine-4-sulfonamide, sodium salt]	≤ 500 nM	≤ 1000 nM
CNc1cc(-c2ccc3c(c2NC(=O)NS(=O)(=O)c2ccn(C4CC4)n2)CCC3)ccn1 [Example 253, 1-Cyclopropyl-N-((5-(2-(methylamino)pyridin-4-yl)-2,3-dihydro-1H-inden-4-yl)carbamoyl)-1H-pyrazole-3-sulfonamide]	≤ 1000 nM	≤ 5000 nM
COc1cc(-c2ccc3c(c2NC(=O)NS(=O)(=O)c2ccn(CC4CC4)n2)CCC3)ccn1 [Example 263, 1-(Cyclopropylmethyl)-N-((5-(2-methoxypyridin-4-yl)-2,3-dihydro-1H-inden-4-yl)carbamoyl)-1H-pyrazole-3-sulfonamide, sodium salt]	≤ 500 nM	≤ 500 nM
COc1cc(-c2ccc3c(c2NC(=O)NS(=O)(=O)c2ccn(C(C)(C)CN4CCCC4)n2)CCC3)ccn1 [Example 243, N-((5-(2-Methoxypyridin-4-yl)-2,3-dihydro-1H-inden-4-yl)carbamoyl)-1-(2-methyl-1-(pyrrolidin-1-yl)propan-2-yl)-1H-pyrazole-3-sulfonamide, sodium salt]	≤ 500 nM	≤ 500 nM
CN(C)CC(C)(C)n1ccc(S(=O)(=O)NC(=O)Nc2c(-c3cccnc3)ccc3c2CCC3)n1 [Example 203, 1-(1-(Dimethylamino)-2-methylpropan-2-yl)-N-((5-(pyridin-3-yl)-2,3-dihydro-1H-inden-4-yl)carbamoyl)-1H-pyrazole-3-sulfonamide]	≤ 500 nM	≤ 500 nM
COc1cc(-c2ccc3c(c2NC(=O)NS(=O)(=O)c2cc(C4(OC)COC4)n(C)n2)CCC3)ccn1 [Example 188, 5-(3-Methoxyoxetan-3-yl)-N-((5-(2-methoxypyridin-4-yl)-2,3-dihydro-1H-inden-4-yl)carbamoyl)-1-methyl-1H-pyrazole-3-sulfonamide]	≤ 500 nM	≤ 500 nM
COc1cc(-c2cc(C3CC3)c3c(c2NC(=O)NS(=O)(=O)c2ccn(C4CC4)n2)CCC3)ccn1 [Example 171, 1-Cyclopropyl-N-((7-cyclopropyl-5-(2-methoxypyridin-4-yl)-2,3-dihydro-1H-inden-4-yl)carbamoyl)-1H-pyrazole-3-sulfonamide, sodium salt]	≤ 500 nM	≤ 5000 nM
CN1CCC2CN(S(=O)(=O)NC(=O)Nc3c(-c4ccnc(C#N)c4)ccc4c3CCC4)CC21 (stereo not shown) [Example 318, N-((5-(2-Cyanopyridin-4-yl)-2,3-dihydro-1H-inden-4-yl)carbamoyl)-1-methylhexahydropyrrolo[3,4-b]pyrrole-5(1H)-sulfonamide]	≤ 1000 nM	≤ 500 nM
[2H]C([2H])([2H])Oc1cc(-c2ccc3c(c2NC(=O)NS(=O)(=O)c2ccn(C4CCC4)n2)CCO3)ccn1 [Example 280, 1-Cyclobutyl-N-((5-(2-(methoxy-d3)pyridin-4-yl)-2,3-dihydrobenzofuran-4-yl)carbamoyl)-1H-pyrazole-3-sulfonamide, sodium salt]	≤ 500 nM	≤ 500 nM
COc1cc(-c2ccc3c(c2NC(=O)NS(=O)(=O)c2ccn(C[C@@H](C)O)n2)CCC3)ccn1 [Example 184, (R)-1-(2-Hydroxypropyl)-N-((5-(2-methoxypyridin-4-yl)-2,3-dihydro-1H-inden-4-yl)carbamoyl)-1H-pyrazole-3-sulfonamide]	≤ 500 nM	≤ 500 nM
CN(C)CCn1ccc(S(=O)(=O)NC(=O)Nc2c(-c3cccnc3)cc(F)c3c2CCC3)n1 [Example 62, 1-(2-(Dimethylamino)ethyl)-N-((7-fluoro-5-(pyridin-3-yl)-2,3-dihydro-1H-inden-4-yl)carbamoyl)-1H-pyrazole-3-sulfonamide]	≤ 500 nM	≤ 5000 nM
CN(C)c1cncc(S(=O)(=O)NC(=O)Nc2c(-c3ccncc3)cc(F)c3c2CCC3)n1 [Example 105, 6-(Dimethylamino)-N-((7-fluoro-5-(pyridin-4-yl)-2,3-dihydro-1H-inden-4-yl)carbamoyl)pyrazine-2-sulfonamide]	≤ 500 nM	≤ 1000 nM
COCCN(CCOC)C(=O)c1cc(S(=O)(=O)NC(=O)Nc2c(-c3ccnc(OC)c3)ccc3c2CCC3)nn1C [Example 167, N,N-Bis(2-methoxyethyl)-3-(N-((5-(2-methoxypyridin-4-yl)-2,3-dihydro-1H-inden-4-yl)carbamoyl)sulfamoyl)-1-methyl-1H-pyrazole-5-carboxamide, sodium salt]	≤ 500 nM	≤ 500 nM
CC(C)c1cc(F)cc(-c2ccnc(C#N)c2)c1NC(=O)NS(=O)(=O)c1cc(CN(C)C)n(C)n1 [Example 48, N-((2-(2-Cyanopyridin-4-yl)-4-fluoro-6-isopropylphenyl)carbamoyl)-5-((dimethylamino)methyl)-1-methyl-1H-pyrazole-3-sulfonamide]	≤ 500 nM	≤ 500 nM
O=C(Nc1c(-c2ccnc(OC(F)F)c2)ccc2c1CCC2)NS(=O)(=O)c1ccn(C2CC2)n1 [Example 262, 1-Cyclopropyl-N-((5-(2-(difluoromethoxy)pyridin-4-yl)-2,3-dihydro-1H-inden-4-yl)carbamoyl)-1H-pyrazole-3-sulfonamide, sodium salt]	≤ 500 nM	≤ 1000 nM
COCc1cc(-c2ccc3c(c2NC(=O)NS(=O)(=O)c2ccn(C(C)C)n2)CCC3)ccn1 [Example 296, 1-Isopropyl-N-((5-(2-(methoxymethyl)pyridin-4-yl)-2,3-dihydro-1H-inden-4-yl)carbamoyl)-1H-pyrazole-3-sulfonamide, sodium salt]	≤ 500 nM	≤ 500 nM
Cc1cc(-c2ccc3c(c2NC(=O)NS(=O)(=O)c2ccn(C(C)C)n2)CCC3)ccn1 [Example 245, 1-Isopropyl-N-((5-(2-methylpyridin-4-yl)-2,3-dihydro-1H-inden-4-yl)carbamoyl)-1H-pyrazole-3-sulfonamide, sodium salt]	≤ 500 nM	≤ 500 nM
CC(C)n1ccc(S(=O)(=O)NC(=O)Nc2c(-c3ccnc(N)c3)ccc3c2CCC3)n1 [Example 285, N-((5-(2-Aminopyridin-4-yl)-2,3-dihydro-1H-inden-4-yl)carbamoyl)-1-isopropyl-1H-pyrazole-3-sulfonamide]	≤ 500 nM	≤ 5000 nM
COc1cc(-c2ccc3c(c2NC(=O)NS(=O)(=O)c2ccn(C(C)(C)CN4CCC4)n2)CCO3)ccn1 [Example 258, 1-(1-(Azetidin-1-yl)-2-rnethylpropan-2-yl)-N-((5-(2-methoxypyridin-4-yl)-2,3-dihydrobenzofuran-4-yl)carbamoyl)-1H-pyrazole-3-sulfonamide, sodium salt]	≤ 500 nM	≤ 500 nM
CC(C)c1cc(F)cc(-c2ccnc(N)c2)c1NC(=O)NS(=O)(=O)c1ccn(C(C)C)n1 [Example 23, N-((2-(2-Aminopyridin-4-yl)-4-fluoro-6-isopropylphenyl)carbamoyl)-1-iso-propyl-1H-pyrazole-3-sulfonamide]	≤ 500 nM	≤ 1000 nM
